Assay: Encapsulation of drug within HA-decorated nanoparticles (FIG. 1, visual)
Type: physicochemical
Conditions: FIG. 1B/1C, colour of solution
Description: The dye is however stably encapsulated in crosslinked HA-decorated nanoparticles (right).
MTX and MMTX encapsulation: A suspension of modified HA (1 mg/mL), crosslinker (2 mg/mL) and Irgacure 2959 (0.5 mg/mL) in water (1 mL) was stirred at RT for 30 mins and purged with argon for 10 mins. To this solution, MTX (100 μL, 6 mg/mL) or MMTX (100 μL, 6 mg/mL) or DMSO 100 μL (control) was added. The reaction mixture was exposed to UV irradiation for 10 min. Afterwards, the free drug was removed by dialyzing the solution against DI water for 48 h and filtered through a hydrophilic membrane (pore size: 0.45 μm). The resulting solution was used to estimate the size of the drug loaded PNPs using dynamic light scattering.

encapsulation within HA-decorated nanoparticles: no encapsulation is discernible
SMILES: CN(Cc1cnc2nc(N)nc(N)c2n1)c1ccc(C(=O)N[C@@H](CCC(=O)O)C(=O)O)cc1 [MTX, Methotrexate]

— US12186319B2, “Crosslinked polymer nanoparticles for targeted cellular uptake and therapeutics, and compositions and methods thereof” (University of Massachusetts, priority 2017, dated 2025)
